The record followed here is ChEMBL document CHEMBL1135376, “Synthesis of an immunoconjugate of camptothecin” (Bioorg Med Chem Lett, 2002).

For one data set, the system named is L2987. Description: Compound was evaluated for antigen specific activity in vitro L2987 cell line. The format is functional, cell-based. Particulars: Homo sapiens.
Data set [1] is described as follows: Compound was evaluated for its stability and enzymatic cleavage of dipeptide linker at pH5, 37 degree C.; 5-6 h. As to conditions: pH 5. The format is ADME.
The nature of data set [2]: Compound was evaluated for its stability and enzymatic cleavage of dipeptide linker at pH5, 37 degree C. As to conditions: pH 5. Format: ADME.
The nature of data set [3]: Compound was evaluated for its stability and enzymatic cleavage of dipeptide linker at pH 7, 37 degree C.; 5-6 h. The format is ADME.

Regarding `CC[C@@]1(O)C(=O)OCc2c1cc1n(c2=O)Cc2cc3ccccc3nc2-1` [CAMPTOTHECIN], it took 0.4 µM to reach half-maximal inhibition with L2987 (IC50). That is a sub-micromolar value.
On to `CC[C@]1(OC(=O)OCc2ccc(NC(=O)[C@H](CCCCN)NC(=O)[C@H](Cc3ccccc3)NC(=O)CCCCCN3C(=O)CC(SCCO)C3=O)cc2)C(=O)OCc2c1cc1n(c2=O)Cc2cc3ccccc3nc2-1` (some centres undefined), for which the half-life is 6 h in data set [1], below 2 min in data set [2] and 6 h in data set [3].
